Seven molecules from US6479487B1, “6, 9-disubstituted 2-[trans-(4-aminocyclohexyl)amino] purines” (Aventis Pharmaceuticals Inc., priority 1998, dated 2002) can be followed below.

Assay [1] concerns the target T1, cdk2/cyclin E (Homo sapiens, UniProt P24941).
T1 construct: made in house; host or cells: insect cells (baculovirus co-infection)
Description: Cyclin-Dependent Kinase 2 Assay (cdk2/cyclin E, GST-Rb substrate). It is filed as biochemical. Particulars: recombinant cdk2/cyclin E, 10 μM ATP, 30 min at 30° C., several values in a cell = separate determinations, read-out: CDK-2 Inhibition IC50. As for the experimental part:
Substrate: GST-Rb as described above for cdk4/cyclin D1
Assay conditions for cdk2/cyclin E were identical to those for cdk4/cyclin D1 including the substrate. The concentration of recombinant cdk2/cyclin E in the assay was 0.1 μg per 100 μl assay. Incubation was for 30 min at 30° C.

Assay [2] relates to MDA-MB-435. Description: In vitro tumor cell proliferation, MDA-MB-435. Particulars: values given with an undefined *, read-out: In vitro Tumor Cell Proliferation (IC50, μM) Breast MDA-MB-435. It is filed as cell-based. Put shortly:
(§1)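 Growth was quantified by sulforhodamine B staining of TCA-fixed cells after 3 days of drug plus 4 more days with fresh drug, or by CyQUANT after 3 days of drug and freezing at −80° C. Counted viable cells were plated and incubated overnight at 37° C before drug.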

In assay [3] the target is T2, cdk4/cyclin D1 (Homo sapiens, UniProt P11802).
T2 construct: made in house; host or cells: Sf9 insect cells (Bac-to-Bac baculovirus, pFastBac)
T2 sequence (P11802 whole entry): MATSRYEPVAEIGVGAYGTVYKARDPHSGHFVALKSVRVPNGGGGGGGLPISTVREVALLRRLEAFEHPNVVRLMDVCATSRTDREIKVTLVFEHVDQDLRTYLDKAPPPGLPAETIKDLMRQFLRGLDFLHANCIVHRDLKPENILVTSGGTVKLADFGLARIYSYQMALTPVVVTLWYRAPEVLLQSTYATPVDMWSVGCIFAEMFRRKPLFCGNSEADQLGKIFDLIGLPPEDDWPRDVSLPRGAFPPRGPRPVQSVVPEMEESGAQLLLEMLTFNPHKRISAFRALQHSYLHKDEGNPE
T2 sequence (P24385 whole entry partner): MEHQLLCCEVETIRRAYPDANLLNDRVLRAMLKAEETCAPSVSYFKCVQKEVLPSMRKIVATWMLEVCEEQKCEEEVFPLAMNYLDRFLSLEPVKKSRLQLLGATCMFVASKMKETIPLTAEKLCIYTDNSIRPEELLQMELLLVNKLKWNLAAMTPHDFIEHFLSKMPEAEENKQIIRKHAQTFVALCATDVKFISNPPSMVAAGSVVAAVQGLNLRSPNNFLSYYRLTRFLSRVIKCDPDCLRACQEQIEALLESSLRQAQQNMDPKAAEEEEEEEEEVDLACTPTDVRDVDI
The assay can be described thus: Cyclin-dependent Kinase 4 Assay (cdk4/cyclin D1, GST-Rb substrate). As to conditions: cdk4/cyclin D1 insect cell lysate, 10 μM ATP, 30 min at 37° C., several values = separate determinations, read-out: CDK4 Inhibition IC50. Type of assay: biochemical. In short, it runs like this: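 IC50 against cdk4 measured by scintillation counting of bead-bound GST-Rb (0.5 μg) after filtration and four TNEN washes. Reaction was 30 min at 37 °C in HEPES pH 7.5 buffer with 10 mM MgCl2 and 1 mM EGTA. Enzyme source was 0.1 μg Sf9 lysate coinfected with cdk4 and cyclin D1.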

In assay [4] the test system is Colo-205. Description: In vitro tumor cell proliferation, Colo-205. Particulars: values given with an undefined *, read-out: In vitro Tumor Cell Proliferation (IC50, μM) Colon Colo-205. It is filed as cell-based. Put shortly:
as §1

In assay [5] the test system is A549. The assay can be described thus: In vitro tumor cell proliferation, A549. It is filed as cell-based, human. Particulars: many values given with an undefined *, read-out: In vitro Tumor Cell Proliferation (IC50, μM) Lung A549. In short, it runs like this: as §1
In assay [6] the test system is DU145. Description: In vitro tumor cell proliferation, DU145. Particulars: many values given with an undefined *, read-out: In vitro Tumor Cell Proliferation (IC50, μM) Prostate DU145. Type of assay: cell-based, human. Put shortly: as §1
Assay [7] deals with MDA-MB-231. The assay can be described thus: In vitro tumor cell proliferation, MDA-MB-231. It is filed as cell-based, human. Particulars: sulforhodamine B or CyQUANT assay, many values given with an undefined *, read-out: In vitro Tumor Cell Proliferation (IC50, μM) Breast MDA-MB-231. In short, it runs like this: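 Proliferation quantified by SRB staining of TCA-fixed cells after 3 days of drug plus 4 days with replenished drug, following overnight attachment at 37 °C.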

The test system of assay [8] is DMS-114. The assay can be described thus: In vitro tumor cell proliferation, DMS-114. As to conditions: many values given with an undefined *, read-out: In vitro Tumor Cell Proliferation (IC50, μM) Lung DMS-114. It is filed as cell-based, human. Put shortly: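 Human small cell lung carcinoma DMS-114 cells plated overnight, then drug-treated for 3 days, medium and drug renewed, and incubated 4 more days. Growth read by sulforhodamine B staining after TCA fixation; alternatively by CyQUANT after 3 days' drug exposure and freezing at −80 °C.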

Assay [9] has as its system HT-29. Description: In vitro tumor cell proliferation, HT-29. It is filed as cell-based, human. Particulars: many values given with an undefined *, read-out: In vitro Tumor Cell Proliferation (IC50, μM) Colon HT-29. Put shortly: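 Growth was quantified either with CyQUANT, plates frozen at −80° C after 3 days of drug, or by sulforhodamine B staining of TCA-fixed cells after 3 days of drug plus 4 days with fresh drug. Trypan blue-excluding HT-29 cells were plated overnight at 37° C before dosing.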

Assay [10] concerns PC-3. Description: In vitro tumor cell proliferation, PC-3. Particulars: many values given with an undefined *, read-out: In vitro Tumor Cell Proliferation (IC50, μM) Prostate PC-3. It is filed as cell-based, human. Put shortly: as §1
[11] abbreviates: Homo sapiens, MDA-MB-435, MDA-MB-435.
[12] abbreviates: Homo sapiens, COLO 205, Colo-205.
Where [13] appears, read: Homo sapiens, MDA-MB-231, MDA-MB-231.

Molecules are shown by their SMILES. Where “and” joins values, the source holds several entries; their conditions need not be identical. Equal values may be shown once. Where a name gives a salt, the structure may show the parent alone. Read-outs that look alike come from different tables or passages of the source.

For `N[C@H]1CC[C@H](Nc2nc(NC3CCN(Cc4cccc(C(F)(F)F)c4)CC3)c3ncn(C4CCCC4)c3n2)CC1` [Example 147-m, 2-[Trans-(4-aminocyclohexyl)amino]-6-[4-[1-(3-trifluoromethylbenzyl)]piperidinylamino]-cyclopentylpurine trihydrochloride], the IC50 was 65 nM and 77 nM in assay [1]; 0.42 µM in assay [2] (setting [11]); 0.56 µM in [2] (MDA-MB-435, trihydrochloride); 370 nM in assay [3]; 0.17 µM in assay [4] (Colo-205, trihydrochloride); 0.18 µM in [4] (setting [12]). Moreover, the IC50 in assay [5] (A549, trihydrochloride) amounted to 0.22 µM; in assay [5] (Homo sapiens, A549, A549), 0.17 µM; in assay [6] (DU145, trihydrochloride), 0.35 µM; in assay [6] (Homo sapiens, DU-145, DU145) it was 0.32 µM; in assay [7] (setting [13]), 0.32 µM; in assay [7] (MDA-MB-231, trihydrochloride), 0.33 µM. For the same molecule, the IC50 came to 0.32 µM in assay [8] (DMS-114, trihydrochloride); 0.29 µM in [8] (Homo sapiens, DMS-114, DMS-114); 0.35 µM in assay [9] (HT-29, trihydrochloride); 0.34 µM in assay [9] (Homo sapiens, HT-29, HT-29); 0.25 µM in assay [10] (Homo sapiens, PC-3, PC-3); 0.5 µM in assay [10] (PC-3, trihydrochloride).

For the molecule `N[C@H]1CC[C@H](Nc2nc(NC3CCN(Cc4ccccc4OC(F)(F)F)CC3)c3ncn(C4CCCC4)c3n2)CC1` [Example 147-ab, 2-[Trans-(4-aminocyclohexyl)amino]-6-[4-[1-(2-trifluoromethoxybenzyl)]piperidinylamino]-9-cyclopentylpurine trihydrochloride], the IC50 in assay [1] was 250 nM and 900 nM; in assay [2] (setting [11]), 0.84 µM; in [2] (MDA-MB-435, trihydrochloride), 0.91 µM; in assay [3] it was 4500 nM and 2700 nM; in assay [4] (Colo-205, trihydrochloride), 0.45 µM; in assay [4] (setting [12]), 0.43 µM. Also, the IC50 in assay [5] (A549, trihydrochloride) was 0.39 µM; in assay [5] (Homo sapiens, A549, A549), 0.33 µM; in [6] (DU145, trihydrochloride), 0.6 µM; in [6] (Homo sapiens, DU-145, DU145), 0.59 µM; in [7] (setting [13]) it was 0.62 µM; in assay [7] (MDA-MB-231, trihydrochloride), 0.7 µM. Besides, the IC50 came out at 0.64 µM in assay [8] (DMS-114, trihydrochloride); 0.74 µM in assay [8] (Homo sapiens, DMS-114, DMS-114); 0.62 µM in assay [9] (HT-29, trihydrochloride); 0.73 µM in [9] (Homo sapiens, HT-29, HT-29); 0.69 µM in assay [10] (Homo sapiens, PC-3, PC-3).

Consider `N[C@H]1CC[C@H](Nc2nc(NC3CCN(Cc4ccc(OC(F)(F)F)cc4)CC3)c3ncn(C4CCCC4)c3n2)CC1` [Example 147-z, 2-[Trans-(4-aminocyclohexyl)amino]-6-[4-[1-(4-trifluoromethoxybenzyl)]piperidinylamino]-9-cyclopentylpurine trihydrochloride], for which the IC50 in assay [1] (trihydrochloride) was 720 nM and 1000 nM; in [2] (MDA-MB-435, trihydrochloride) it was 0.5 µM and 0.57 µM; in assay [3] (trihydrochloride), 7900 nM and 5700 nM; in assay [4] (Colo-205, trihydrochloride) it was 0.38 µM and 0.46 µM; in assay [5] (A549, trihydrochloride), 0.18 µM and 0.3 µM; in assay [6] (DU145, trihydrochloride), 0.28 µM and 0.36 µM. Further, the IC50 in assay [7] (MDA-MB-231, trihydrochloride) was 0.37 µM and 0.35 µM; in assay [8] (DMS-114, trihydrochloride), 0.34 µM and 0.42 µM; in assay [9] (HT-29, trihydrochloride) it was 0.43 µM and 0.44 µM; in assay [10] (PC-3, trihydrochloride), 0.33 µM and 0.44 µM.

For the molecule `N[C@H]1CC[C@H](Nc2nc(NC3CCN(Cc4ccc(C(F)(F)F)cc4C(F)(F)F)CC3)c3ncn(C4CCCC4)c3n2)CC1` [Example 147-aa, 2-[Trans-(4-aminocyclohexyl)amino]-6-[4-[1-(2,4-bis-trifluoromethylbenzyl)]piperidinylamino]-9-cyclopentylpurine trihydrochloride], the IC50 was 1600 nM and 2600 nM in [1] (trihydrochloride); 5.8 µM and 4.9 µM in assay [2] (MDA-MB-435, trihydrochloride); 10000 nM and 8400 nM in [3] (trihydrochloride); 4 µM and 2.9 µM in assay [4] (Colo-205, trihydrochloride); 4.1 µM and 3.6 µM in [5] (A549, trihydrochloride); 4.4 µM and 4.3 µM in [6] (DU145, trihydrochloride). For the same molecule, the IC50 in [7] (MDA-MB-231, trihydrochloride) was 2.5 µM and 3.1 µM; in [8] (DMS-114, trihydrochloride), 2.7 µM and 2.9 µM; in [9] (HT-29, trihydrochloride), 2.8 µM and 2.3 µM; in assay [10] (PC-3, trihydrochloride), 3.8 µM and 4.6 µM.

On to `N[C@H]1CC[C@H](Nc2nc(NC3CCN(Cc4ccc(F)cc4F)CC3)c3ncn(C4CCCC4)c3n2)CC1` [Example 147-h, 2-[Trans-(4-aminocyclohexyl)amino]-6-[4-[1-(2,4-difluorobenzyl)piperidinylamino]-9-cyclopentylpurinetrihydrochloride], for which the IC50 is 100 nM and 240 nM in assay [1]; 0.48 µM in [2] (setting [11]); 0.78 µM in [2] (MDA-MB-435, trihydrochloride); 2800 nM and 1800 nM in [3]; 0.21 µM in [4] (Colo-205, trihydrochloride); 0.34 µM in [4] (setting [12]). The IC50 came to 0.16 µM in [5] (A549, trihydrochloride); 0.22 µM in assay [5] (Homo sapiens, A549, A549); 0.36 µM in [6] (DU145, trihydrochloride); 0.34 µM in [6] (Homo sapiens, DU-145, DU145); 0.47 µM in assay [7] (setting [13]); 0.47 µM in [8] (DMS-114, trihydrochloride). The IC50 is 0.94 µM in assay [8] (Homo sapiens, DMS-114, DMS-114); 0.47 µM in assay [9] (HT-29, trihydrochloride); 0.42 µM in [9] (Homo sapiens, HT-29, HT-29); 0.33 µM in assay [10] (Homo sapiens, PC-3, PC-3); 0.58 µM in assay [10] (PC-3, trihydrochloride).

Regarding `N[C@H]1CC[C@H](Nc2nc(NC3CCN(Cc4cccc5ccccc45)CC3)c3ncn(C4CCCC4)c3n2)CC1` [Example 147-a, 2-[Trans-(4-aminocyclohexyl)amino]-6-[4-[1-(1-naphthyl)methyl]piperidinylamino)-9-cyclopentylpurine trihydrochloride], the IC50 in assay [1] was 410 nM and 97 nM and 440 nM; in assay [2] (setting [11]), 0.42 µM; in assay [2] (MDA-MB-435, trihydrochloride), 0.408 µM; in assay [3] it was 2900 nM and 2100 nM; in assay [4] (setting [12]) it was 0.2 µM; in [5] (Homo sapiens, A549, A549), 0.17 µM. The IC50 turned out to be 0.33 µM in assay [6] (DU145, trihydrochloride); 0.22 µM in assay [6] (Homo sapiens, DU-145, DU145); 0.35 µM in [7] (setting [13]); 0.34 µM in assay [7] (MDA-MB-231, trihydrochloride); 0.33 µM in assay [8] (DMS-114, trihydrochloride); 0.32 µM in assay [8] (Homo sapiens, DMS-114, DMS-114). Moreover, the IC50 in assay [9] (Homo sapiens, HT-29, HT-29) was 0.32 µM; in [10] (Homo sapiens, PC-3, PC-3), 0.24 µM; in assay [10] (PC-3, trihydrochloride), 0.34 µM.

For the molecule `N[C@H]1CC[C@H](Nc2nc(NC3CCN(Cc4cc(Cl)cc(Cl)c4)CC3)c3ncn(C4CCCC4)c3n2)CC1` [Example 147-w, 2-[Trans-(4-aminocyclohexyl)amino]-6-[4-[1-(3,5-dichlorobenzyl)]piperidinylamino]-9-cyclopentylpurine trihydrochloride], the IC50 is 130 nM and 180 nM in [1]; 0.57 µM in assay [2] (setting [11]); 0.51 µM in [2] (MDA-MB-435, trihydrochloride); 4000 nM and 2100 nM in assay [3]; 0.32 µM in assay [4] (setting [12]); 0.21 µM in assay [5] (Homo sapiens, A549, A549). Besides, the IC50 was 0.39 µM in [6] (DU145, trihydrochloride); 0.35 µM in [6] (Homo sapiens, DU-145, DU145); 0.35 µM in assay [7] (setting [13]); 0.4 µM in assay [7] (MDA-MB-231, trihydrochloride); 0.45 µM in assay [8] (Homo sapiens, DMS-114, DMS-114); 0.39 µM in assay [9] (HT-29, trihydrochloride). The IC50 was 0.37 µM in assay [9] (Homo sapiens, HT-29, HT-29); 0.44 µM in assay [10] (Homo sapiens, PC-3, PC-3); 0.46 µM in assay [10] (PC-3, trihydrochloride).
